These results are taken from ChEMBL document CHEMBL1201862, “PubChem BioAssay data set” (2004).

Some test systems named below: MDA-MB-435; HCT-15; K562; NCI-H460; MDA-N; SF-295; SK-MEL-5; A498; PC-3; SK-MEL-28; SF-539; MCF7; BT-549; IGROV-1; NCI/ADR-RES; NCI-H226; HCT-116; HCC 2998; MDA-MB-231; UO-31.
Holding throughout (assay): NCI-60 cell line screen, 48 h

Molecules are shown by their SMILES.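 Each compound was tested at five concentrations against cells in 96-well plates for 48 hours. Here, GI50 denotes the concentration required for 50% inhibition of growth.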 Calls of active or inactive are those of the source. No stated cut-off is given here; in the data, active = GI50 up to about 1.1 µM and inactive = higher.

Consider `CC(C)(C)C1CCC2c3c([nH]c4ccccc34)C3C(=O)N(c4ccc(C#N)cc4)C(=O)C3C2C1` (stereo not given), for which the GI50 in the assay with MDA-MB-435 was 26.3 µM (inactive); in the assay on HCT-15, 12.1 µM; in the assay on K562, 6.22 µM (inactive); in the assay with NCI-H460 it was 3.81 µM (inactive); in the assay with MDA-N it was 11.9 µM (inactive); in the assay with SF-295, 29.2 µM (inactive). Besides, the GI50 is 12.9 µM (inactive) with SK-MEL-5; 13.7 µM (inactive) in the assay with A498; 3.66 µM (inactive) in the assay with PC-3; 14 µM (inactive) with SK-MEL-28; 18.7 µM (inactive) with SF-539; 29.5 µM (inactive) in the assay with MCF7. In addition, the GI50 in the assay on BT-549 was 15.7 µM (inactive); in the assay with IGROV-1, 16.4 µM (inactive); in the assay with NCI/ADR-RES, 17.6 µM (inactive); in the assay with NCI-H226, 20 µM (inactive); in the assay with HCT-116, 5.43 µM (inactive); in the assay with HCC 2998 it was 3.25 µM (inactive). Moreover, the GI50 in the assay on MDA-MB-231 was 15.3 µM (inactive); in the assay on UO-31, 7.36 µM (inactive).

Consider `OCCc1ccsc1-c1sc(-c2cc(CCO)c(-c3sc(-c4cc(CCO)c(-c5sccc5CCO)s4)cc3CCO)s2)cc1CCO`, for which the GI50 is 1.32 µM (inactive) in the assay with MDA-MB-435; 1.03 µM in the assay with HCT-15; 1.14 µM (inactive) in the assay with K562; 0.841 µM (active) in the assay with NCI-H460; 1.24 µM (inactive) in the assay with MDA-N; 1.29 µM (inactive) with SF-295. Besides, the GI50 is 1.13 µM (inactive) in the assay with SK-MEL-5; 2 µM (inactive) with A498; 1.28 µM (inactive) in the assay on PC-3; 1.55 µM (inactive) in the assay on SK-MEL-28; 1.44 µM (inactive) with SF-539; 0.624 µM (active) with MCF7. Also, the GI50 is 0.634 µM (active) in the assay with BT-549; 1.21 µM (inactive) in the assay on IGROV-1; 1.86 µM (inactive) in the assay on NCI/ADR-RES; 1.65 µM (inactive) with NCI-H226; 0.889 µM (active) in the assay on HCT-116; 1.47 µM (inactive) with HCC 2998. For the same molecule, the GI50 with MDA-MB-231 was 2.83 µM (inactive); with UO-31, 1.29 µM (inactive).

Take `Cn1c(=O)cc(NNc2ccc(Cl)c(Cl)c2)[nH]c1=O`: the GI50 is 3.31 µM (inactive) in the assay with MDA-MB-435; 3.75 µM with HCT-15; 2.04 µM (inactive) with K562; 4.86 µM (inactive) in the assay with NCI-H460; 9.06 µM (inactive) in the assay with MDA-N; 15.3 µM (inactive) with SF-295. Also, the GI50 in the assay with SK-MEL-5 is 5.31 µM (inactive); in the assay with A498, 36.8 µM (inactive); in the assay with PC-3, 12.6 µM (inactive); with SK-MEL-28 it was 11.5 µM (inactive); in the assay on SF-539, 15.1 µM (inactive); with MCF7, 6.41 µM (inactive). The GI50 was 16 µM (inactive) with BT-549; 6.52 µM (inactive) in the assay on IGROV-1; 13.3 µM (inactive) with NCI/ADR-RES; 19.5 µM (inactive) in the assay on NCI-H226; 7.19 µM (inactive) in the assay with HCT-116; 2.53 µM (inactive) in the assay on HCC 2998. Moreover, the GI50 is 10.8 µM (inactive) in the assay with MDA-MB-231 and 12.1 µM (inactive) in the assay on UO-31.

In the case of `Cc1nn(-c2ccccc2)c(C)c1/C=N/NC(=O)c1sc(=S)n(-c2ccccc2)c1N`, the GI50 in the assay on MDA-MB-435 was 4.47 µM (inactive); with HCT-15, 4.89 µM; with K562, 0.681 µM (active); with NCI-H460, 3.08 µM (inactive); with MDA-N it was 4.19 µM (inactive); in the assay on SF-295, 2.42 µM (inactive). Further, the GI50 is 4.06 µM (inactive) in the assay with SK-MEL-5; 3.63 µM (inactive) in the assay on A498; 4.03 µM (inactive) in the assay with PC-3; 3.25 µM (inactive) with SK-MEL-28; 2.39 µM (inactive) with SF-539; 5.65 µM (inactive) in the assay on MCF7. In addition, the GI50 with BT-549 was 9.71 µM (inactive); in the assay on IGROV-1 it was 0.221 µM (active); with NCI/ADR-RES, 3.62 µM (inactive); in the assay on NCI-H226, 6.52 µM (inactive); with HCT-116, 4.5 µM (inactive); with HCC 2998, 4.61 µM (inactive). Also, the GI50 is 2.18 µM (inactive) in the assay on MDA-MB-231 and 3.74 µM (inactive) in the assay on UO-31.

Turning to `Cc1cc(NS(=O)(=O)c2ccc(NO)cc2)no1`, the GI50 is 19.5 µM (inactive) in the assay on MDA-MB-435; 32.4 µM in the assay on HCT-15; 14.7 µM (inactive) with K562; > 100 µM (inactive) in the assay on NCI-H460; 20.7 µM (inactive) with MDA-N; > 10 µM (inactive) in the assay with SF-295. Moreover, the GI50 was > 100 µM (inactive) with SK-MEL-5; > 100 µM (inactive) in the assay on A498; > 100 µM (inactive) in the assay on PC-3; > 100 µM (inactive) in the assay on SK-MEL-28; 35.1 µM (inactive) in the assay with SF-539; 22 µM (inactive) in the assay on MCF7. Besides, the GI50 in the assay with BT-549 was > 100 µM (inactive); with IGROV-1 it was > 100 µM (inactive); with NCI/ADR-RES, 39.5 µM (inactive); in the assay with NCI-H226 it was > 100 µM (inactive); with HCT-116, 28.5 µM (inactive); in the assay with HCC 2998 it was > 100 µM (inactive). Besides, the figures for the GI50 with MDA-MB-231 and with UO-31 were 34.7 µM (inactive) and > 100 µM (inactive), respectively.

For the molecule `Cc1ccc(-c2cc(-c3cc(-c4ccc(C)cc4C)[nH]n3)[nH]n2)c(C)c1`, the GI50 was 14.7 µM (inactive) in the assay on MDA-MB-435; 15.4 µM in the assay with HCT-15; 15.5 µM (inactive) in the assay with K562; 7.93 µM (inactive) in the assay with NCI-H460; 14.9 µM (inactive) in the assay with MDA-N; 13.1 µM (inactive) with SF-295. Further, the GI50 was 16.4 µM (inactive) with SK-MEL-5; 16.6 µM (inactive) in the assay with A498; 15.1 µM (inactive) in the assay with PC-3; 13.7 µM (inactive) in the assay on SK-MEL-28; 17 µM (inactive) in the assay with SF-539; 15 µM (inactive) in the assay with MCF7. Also, the GI50 in the assay with BT-549 is 21.9 µM (inactive); in the assay with IGROV-1, 13.7 µM (inactive); in the assay on NCI/ADR-RES, 18.9 µM (inactive); with NCI-H226, 20.5 µM (inactive); with HCT-116, 16 µM (inactive); in the assay with HCC 2998, 13.2 µM (inactive). Further, the GI50 was 16.2 µM (inactive) with MDA-MB-231 and 23 µM (inactive) in the assay on UO-31.

As for `Cc1ccc(-n2cc(-c3ccc(Cl)cc3)c3c(=N)n(N)cnc32)cc1`, the GI50 with MDA-MB-435 is 11.1 µM (inactive); in the assay on HCT-15 it was 15.6 µM; with K562 it was 6.46 µM (inactive); in the assay on NCI-H460, 10.3 µM (inactive); with MDA-N, 11.5 µM (inactive); in the assay on SF-295, 15.4 µM (inactive). Moreover, the GI50 in the assay with SK-MEL-5 was 7.43 µM (inactive); in the assay with A498, 15.9 µM (inactive); in the assay on PC-3 it was 6.41 µM (inactive); in the assay on SK-MEL-28 it was 13.8 µM (inactive); in the assay with SF-539 it was 13.4 µM (inactive); in the assay with MCF7 it was 11 µM (inactive). Besides, the GI50 is 16.9 µM (inactive) with BT-549; 12 µM (inactive) in the assay on IGROV-1; 13.1 µM (inactive) in the assay with NCI/ADR-RES; 21 µM (inactive) with NCI-H226; 7.8 µM (inactive) in the assay with HCT-116; 6.11 µM (inactive) with HCC 2998. Moreover, the GI50 in the assay with MDA-MB-231 was 12.6 µM (inactive); with UO-31 it was 11.7 µM (inactive).

As to `Cc1noc2nnn(-c3ccc(Cl)cc3)c(=O)c12`, the GI50 is 2.95 µM (inactive) in the assay with MDA-MB-435; 2.31 µM in the assay with HCT-15; 1.3 µM (inactive) in the assay on K562; 6.43 µM (inactive) with NCI-H460; 6.01 µM (inactive) in the assay with MDA-N; 12.3 µM (inactive) in the assay with SF-295. Moreover, the GI50 was 3.82 µM (inactive) in the assay with SK-MEL-5; 13.5 µM (inactive) with A498; 3.71 µM (inactive) in the assay on PC-3; 10.8 µM (inactive) with SK-MEL-28; 0.223 µM (active) in the assay on SF-539; 2.67 µM (inactive) in the assay with MCF7. The GI50 in the assay with BT-549 is 3.16 µM (inactive); with IGROV-1, 5.33 µM (inactive); in the assay on NCI/ADR-RES, 4.17 µM (inactive); with NCI-H226 it was 2.61 µM (inactive); in the assay with HCT-116 it was 2.89 µM (inactive); with HCC 2998, 2.15 µM (inactive). Further, the GI50 with MDA-MB-231 was 8.95 µM (inactive); in the assay on UO-31, 3.61 µM (inactive).

For the molecule `C=C1C(=O)OC2/C=C(/C)C3(O)OC(C)(CC(OC(=O)C(C)C)C12)CC3OC(C)=O` (stereo not given), the GI50 in the assay with MDA-MB-435 is 3.96 µM (inactive); in the assay on HCT-15 it was 4.45 µM; with K562, 2.96 µM (inactive); in the assay on NCI-H460, 3.9 µM (inactive); with MDA-N, 2.04 µM (inactive); in the assay with SF-295, 9.75 µM (inactive). Moreover, the GI50 was 6.31 µM (inactive) with SK-MEL-5; 3.96 µM (inactive) with A498; 13.7 µM (inactive) in the assay on PC-3; 7.48 µM (inactive) in the assay on SK-MEL-28; 3.05 µM (inactive) in the assay with SF-539; 3.7 µM (inactive) in the assay with MCF7. Further, the GI50 was 5.79 µM (inactive) in the assay with BT-549; 4.5 µM (inactive) with IGROV-1; 11.9 µM (inactive) in the assay with NCI/ADR-RES; 35.5 µM (inactive) in the assay on NCI-H226; 5.3 µM (inactive) with HCT-116; 4.53 µM (inactive) with HCC 2998. Moreover, the GI50 with MDA-MB-231 was 12.5 µM (inactive); in the assay on UO-31, 6.17 µM (inactive).

As for `COc1cc(CCNC2=CC(=O)c3ncccc3C2=O)ccc1O`, the GI50 in the assay on MDA-MB-435 is 1.44 µM (inactive); in the assay with HCT-15 it was 1.94 µM; in the assay on K562 it was 2.21 µM (inactive); with NCI-H460, 1.02 µM (active); with MDA-N, 1.37 µM (inactive); in the assay on SF-295, 1.6 µM (inactive). The GI50 in the assay with SK-MEL-5 was 0.54 µM (active); with A498, 16.6 µM (inactive); in the assay with PC-3, 2.65 µM (inactive); in the assay with SK-MEL-28 it was 2 µM (inactive); in the assay with SF-539, 3.04 µM (inactive); with MCF7, 2.44 µM (inactive). The GI50 is 1.46 µM (inactive) in the assay with BT-549; 2.29 µM (inactive) in the assay on IGROV-1; 2.93 µM (inactive) with NCI/ADR-RES; 2.7 µM (inactive) in the assay with NCI-H226; 3.17 µM (inactive) in the assay with HCT-116; 4.23 µM (inactive) in the assay with HCC 2998. Further, the GI50 in the assay on MDA-MB-231 is 2.37 µM (inactive); in the assay on UO-31, 5.3 µM (inactive).
